Test results from US20090149461A1, “METHOD OF TREATING CANCER” (ABBOTT LABORATORIES, priority 2007, published 2009).
Where two headings read alike, the source gives them in different places.

What was measured:
[1] = nonclinical pharmacokinetic profile in multiple animal models; format: in vivo; settings: all species studied
[2] = (14C) ABT-263 absorption and elimination in rat; format: in vivo
Description: (§1) The oral bioavailability of the compound is formulation dependent, with values of 30% to 50% obtained from prototype solid dispersion and lipid-based formulations in dog. […] Elimination of total radioactivity is rapid, with 90% of the dose recovered within 24-hours post-dose.

[3] = system: cultured human peripheral blood lymphocytes; experiment: chromosomal aberration assay; format: cell-based; settings: with or without metabolic activation
Bcl-w = biological target: T1, Bcl-w (Homo sapiens, UniProt Q92843); experiment: binding affinity to anti-apoptotic Bcl-2 family proteins
T1 sequence (Q92843 1-193): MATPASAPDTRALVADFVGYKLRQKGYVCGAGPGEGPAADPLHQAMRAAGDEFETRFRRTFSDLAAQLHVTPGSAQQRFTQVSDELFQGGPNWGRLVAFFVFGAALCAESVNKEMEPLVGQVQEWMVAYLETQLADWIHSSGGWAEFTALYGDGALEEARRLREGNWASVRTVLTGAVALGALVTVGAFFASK

[4] = simulation of q.d. dosing in humans (exposure and platelets)
Description: Based on preclinical evidence, potential treatment-related side effects may include drug interactions, lymphopenia, testicular effects, and thrombocytopenia. […] Under these conditions, platelet values are expected to be ′25 K/.iL at steady state.

[5] = rat, in vivo, 4 weeks
platelets = experiment: decrease in circulating platelets in animals; format: in vivo, mouse, rat and dog
Description: Thrombocytopenia was seen after administration of a single dose and is present at the time of Cmax.

dog toxicity studies = format: in vivo
Description: Target organs in the dog included lymphoid tissues (spleen, Peyer's patch, lymph nodes, and thymus (a 2-week study)), male reproductive tissues (testes and epididymides), and pancreas. The microscopic changes observed in these target organs included decreased size of follicles, cortex, and/or germinal centers in lymphoid tissue; decreased cellularity in mantle zone, germinal centers, and/or interfollicular areas of lymphoid tissue; spermatogonia, spermatocyte and/or spermatid (round and elongated) depletion; and pancreatic acinar cell single cell necrosis. With the exception of pancreatic acinar cell single cell necrosis, these microscopic changes were also noted following a 4-week dose-free recovery period.

WSU-DLCL2 = experiment: flank model of diffuse large B-cell lymphoma, monotherapy; format: in vivo; settings: 100 mg/kg/day p.o., q.d.×17 days
Description: (§2) Both of these tumors are known to express high levels of Bcl-2 due to the t(14;18) translocation. The WSU-DLCL2 line was isolated from a patient whose disease progressed following chemotherapy, radiation therapy and bone marrow transplantation and is recognized as a model of therapy-resistant lymphoma.

DoHH-2 = experiment: as above; format: in vivo; settings: DoHH-2 flank model; 100 mg/kg/day p.o., q.d.×17 days
Description: as §2

[6] = system: Salmonella-Escherichia coli; experiment: Salmonella-Escherichia coli bacterial mutation assay (Ames); settings: with or without metabolic activation
[7] = Phase 1/2a study pharmacokinetics; format: in vivo, human; settings: for AUC: human
Method: There was no drug administered for the 72 hours following the first dose of the first cycle (Day-3) in order to assess the single-dose pharmacokinetics and toxicity.
Additional blood samples were collected at 0 hour (pre dose) on Day 14, Cycle 2 through Cycle 6. Sufficient blood were collected to provide approximately 1 mL plasma from each sample. A total of 27 blood samples (approximately 81 mL) were collected per subject for pharmacokinetic analysis during Cycle 1 and one additional blood sample per subject per cycle in the following cycles (up to Cycle 6).
The plasma samples were transferred using plastic pipettes into screw-capped polypropylene tubes labeled with the drug number name, type of sample (plasma), the protocol number, the subject number, the study cycle and day and the planned time of sampling relative to dosing. The plasma samples were frozen at −20° C. or colder within 1 hour after collection and will remain frozen until shipped.
Additional parameters may be calculated if useful in the interpretation of the data.
Subjects self-administered ABT-263 orally once daily (QD). Each dose were taken with approximately 240 mL of water. On days that pre-dose pharmacokinetic sampling is required (Cycle 1 Day-3, Cycle 1 Day 1, Cycle 1 Day 2, Cycle 1 Day 14, Cycle 2 Day 14, Cycle 3 Day 14, Cycle 4 Day 14, Cycle 5 Day 14 and Cycle 6 Day 14 in Phase 1 and on Cycle 1 Day 14 in Phase 2a) dosing will occur in the morning in the clinic to facilitate pharmacokinetic sampling.

[8] = system: 22 cell lines consisting of multiple leukemia and lymphoma types (B-cell and T-cell malignancies); experiment: single agent activity in leukemia and lymphoma cell line panel; format: cell-based
[9] = oral bioavailability from prototype formulations in dog; format: in vivo; settings: beagle, plasma, prototype solid dispersion and lipid-based formulations
Description: as §1

[10] = system: human tumor cell lines derived from small cell lung carcinomas and lymphoid malignancies; experiment: mechanism-based cytotoxicity in tumor cell lines
[11] = in vivo rat micronucleus assay
Bcl-B = biological target: T2, Bcl-B (Homo sapiens, UniProt Q9HD36); experiment: binding affinity to anti-apoptotic Bcl-2 family proteins
T2 sequence (Q9HD36 1-204): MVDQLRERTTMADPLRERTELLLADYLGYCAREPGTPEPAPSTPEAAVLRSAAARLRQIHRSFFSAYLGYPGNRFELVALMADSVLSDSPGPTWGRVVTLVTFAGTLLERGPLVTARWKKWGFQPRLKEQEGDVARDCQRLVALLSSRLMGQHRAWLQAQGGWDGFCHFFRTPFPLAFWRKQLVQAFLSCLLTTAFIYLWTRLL

For `CC1(C)CCC(c2ccc(Cl)cc2)=C(CN2CCN(c3ccc(C(=O)NS(=O)(=O)c4ccc(N[C@H](CCN5CCOCC5)CSc5ccccc5)c(S(=O)(=O)C(F)(F)F)c4)cc3)CC2)C1` [ABT-263, N-(4-(4-((2-(4-chlorophenyl)-5,5-dimethyl-1-cyclohex-1-en-1-yl)methyl)piperazin-1-yl)benzoyl)-4-(((1R)-3-(morpholin-4-yl)-1-((phenylsulfanyl)methyl)propyl)amino)-3-((trifluoromethyl)sulfonyl)benzenesulfonamide], the half-life ([1]; CD-1 (mouse), Sprague-Dawley (rat), beagle (dog), mouse, rat, dog, cynomolgus monkey, plasma, read-out: terminal half-lives) was 4.6 to 8.4 h, the plasma clearance [1] was “very low” and the volumes of distribution [1] was “low”. The absorption ([2]; (14C) ABT-263) was “slowly absorbed”, the “parent drug in systemic circulation” value ([2]; (14C) ABT-263) was “major component” and the “dose recovered (total radioactivity)” value ([2]; within 24-hours post-dose) was 90%. For the same compound, the “chromosome aberrations in human lymphocytes in vitro” value [3] was “did not induce chromosome aberrations”, the Ki (Bcl-w) was at most 1 nM and the “expected biologically effective plasma concentration in humans” value [4] was 6.7 .iM. For the same compound, the tolerated dose [5] was 10 mg/kg/day, the “time for platelet counts to return to normal values” (platelets; after a single dose) was “approximately one week” and the “duration for which platelet toxicity was tolerated” value (platelets; rat and dog) was “up to 28 days”. For the same compound, the bleeding time (dog toxicity studies; 2-week toxicity study, dogs with low platelet counts (<50 K/μL)) was “prolonged bleeding time”, the “time to full reversal of platelet effect after treatment ended” value (dog toxicity studies; 4-week toxicity study in dogs) was “less than 7 days” and the effect on lymphocytes (dog toxicity studies; dog) was “mild decrease”. The effect on platelets (dog toxicity studies; dog) was “marked decrease”, the NOAEL at 4 weeks (dog toxicity studies; dog, in vivo, 4 weeks of administration to dogs) was 1 mg/kg/day and the monotherapy activity (WSU-DLCL2) was “significant monotherapy activity”. The monotherapy activity (DoHH-2) was “significant monotherapy activity”, the “mutagenicity in the Ames assay” value [6] was “not mutagenic” and the “effect of food on oral absorption” value ([7]; fasting vs non-fasting) was “mild positive effect”. For the same compound, the “Inter-subject variability in exposure” value ([7]; human subjects) was about 40%, the “dose proportionality of exposure” value ([7]; human subjects) was “dose-proportional” and the AUC ([7]; in vivo, preclinical target, read-out: Preclinical target AUC) was 53000 to 88000 ng·h/mL. For the same compound, the AUC ([7]; plasma, oral, 225 mg (n=4), read-out: Mean AUC) was 47000 ng·h/mL, the AUC ([7]; plasma, oral, 315 mg (n=5), read-out: Mean AUC) was 100000 ng·h/mL and the AUC ([7]; plasma, oral, 440 mg (n=3), read-out: Mean AUC) was 109000 ng·h/mL. The half-life ([7]; plasma, oral, human subjects) was 14 to 20 h, the “cell lines with potent single agent activity” value [8] was 10 of 22 and the bioavailability [9] was 30 to 50%. The “no-observed-adverse-effect-level (NOAEL)” value (rat toxicity studies; 4-week rat toxicity study) was “not reached”, the “effect on liver enzymes (ALT, AST, alkaline phosphatase)” value (rat toxicity studies; rat) was “minimal to mild increases” and the effect on lymphocytes (rat toxicity studies; rat) was “minimal to moderate decreases”. The effect on platelets (rat toxicity studies; rat) was “mild to marked decreases”, the EC50 [10] was at most 1000 nM and the “clastogenicity in rat micronucleus assay” value [11] was “not clastogenic”. For the same compound, the Ki (Bcl-B) was at most 1 nM.
